Earlier results in patent US10336750B2, “Composition and methods for the treatment of CaMKK2-mediated disorders” (Duke University, priority 2015, dated 2019).

System: neovascular remodeling (NVR) in experimental laser-induced CNV
Conditions: aged (16 month-old) mice, systemic depletion of macrophages, compared to sham control

O=P(O)(O)C(Cl)(Cl)P(=O)(O)O [clodronate]
NVR phenotype, lesion size and fibrosis (choroidal flatmounts by FITC-dextran): abrogation of the NVR phenotype, resulting in smaller lesions with less fibrosis
